These results are taken from patent US7033583B2, “Polymeric thiol-linked prodrugs” (Enzon Pharmaceuticals, Inc., priority 2001, dated 2006).

Experiment [1] concerns P388/0 cell lines. The experiment is described as follows: Cytotoxicity assay (Alamar Blue) in P388/0 cells. In kind it is cell-based. The settings on record: Mus musculus, 72 h, 3 days. As for the experimental part:
Cell Lines and Cytotoxicity Assays. Studies using P388/0 cell lines for IC50 (drug concentration inhibiting growth of cells by 50%) were maintained and conducted as previously reported. Briefly, for IC50 determination, cells were seeded into the microwell plates at a density of 2×10^3 cells per 50 μL per well. Plates were incubated at 37° C. in a humidified incubator with 5% CO2 for 3 days. Cell growth was measured by the addition of 10 μL/well of Alamar Blue (Alamar Biosciences, Inc., Sacramento, Calif.) and the plates were incubated a further 4 h at 37° C. The IC50 values for each compound were determined from absorbance versus dilution factor plots. All cell cultures for animal implantation were maintained at 37° C. in a humidified atmosphere of 5% CO2/95% O2 and subcultured once a week. All cell lines were periodically tested for Mycoplasma and were Mycoplasma free.

The subject of experiment [2] is Lung M109 Syngeneic Solid Tumors. The experiment can be described thus: In vivo efficacy against M109 solid tumors. More on the design: species or system Balb/C mice. The settings on record: i.v. day 1 & 4; for T/C (%) at Day 25: control median tumor ~2000 mm^3. As for the experimental part: M109 cells (NCI), derived from donor mice, were grown and expanded in tissue culture for in vivo implantation. Cells were grown in EMEM with 10% FBS and 1% streptomycin/penicillin media, kept in an incubator at 37° C. with 5% CO2 and split twice a week. Cells were trypsinized, harvested, washed, counted and prepared in PBS for transport to the vivarium. Cells were kept on ice until implantation was conducted with minimum lag time. A cell suspension of approximately 5×10^6 cells/mL was used. Balb/C mice were implanted subcutaneous with 100 μL of the above cell suspension (Day 0). Treatments were administered intravenously on Day 1 and Day 4. Compound doses were based on the content of 6-MP. Body weight and tumor volume were then measured twice weekly until the group's median tumor volume exceeded 2000 mm^3. The tumor volume for each mouse was determined by measuring two dimensions with calipers and calculated using the formula: tumor volume=(length×width^2)/2. Drug effects were determined by comparing tumor growth in treated versus control (no vehicle) mice. Three types of endpoints were used as the basis for comparison: (a) the percent difference in tumor volume (% T/C), measured when the control group's median tumor volume reached approximately 800–1100 mm^3 (exponential growth phase), (b) again when the control group's median tumor volume was approximately 2000 mm^3 and (c) the number of tumor regression (smaller tumor volume on Day 25 compared to Day 1) per group.

For the compound `Sc1ncnc2nc[nH]c12` [Compound 1, 6-mercaptopurine, reference compound], it took 2670 nM to reach half-maximal inhibition in experiment [1] (IC50). In addition, the “inhibiting the growth of M109 solid tumors” value in experiment [2] (Balb/C mice) is “ineffective”. The “T/C (%) at Day 18” value in experiment [2] (total dose 60 mg/kg (6-MP content), control median tumor ~1000 mm^3) was found to be 127.1%. Besides, the “T/C (%) at Day 25” value came to 122.0% in experiment [2] (total dose 60 mg/kg (6-MP content)) and 183.8% in experiment [2] (total dose 200 mg/kg).
